# From ChEMBL document CHEMBL1697781, “Assessment of the health effects of chemicals in humans: II. Construction of an adverse effects database for QSAR modeling” (Curr Drug Discov Technol, 2004)
# Legend:
# Settings in all cases: human; call rule not given here
# Hepatotoxicity [1] = experiment: FDA HLAED, liver enzyme composite activity
# Hepatotoxicity [2] = experiment: FDA HLAED, alkaline phosphatase increase
# Hepatotoxicity [3] = experiment: FDA HLAED, lactate dehydrogenase (LDH) increase
# Hepatotoxicity [4] = experiment: FDA HLAED, serum glutamic oxaloacetic transaminase (SGOT) increase
# Hepatotoxicity [5] = experiment: FDA HLAED, serum glutamic pyruvic transaminase (SGPT) increase
# Hepatotoxicity [6] = experiment: FDA HLAED, gamma-glutamyl transferase (GGT) increase
# For GGT Increase - Index Value in this document: reference of the scale not given here.
# For LDH Increase - Index Value in this document: reference of the scale not given here.
Structure (SMILES),Composite Activity - Active (Hepatotoxicity [1]),Composite Activity - Marginal (Hepatotoxicity [1]),Composite Activity - Score (Hepatotoxicity [1]),Alkaline Phosphatase Increase - Activity Score (Hepatotoxicity [2]),Alkaline Phosphatase Increase - Index Value (Hepatotoxicity [2]),Alkaline Phosphatase Increase - Number of Reports (Hepatotoxicity [2]),LDH Increase - Activity Score (Hepatotoxicity [3]),LDH Increase - Index Value (Hepatotoxicity [3]),LDH Increase - Number of Reports (Hepatotoxicity [3]),SGOT Increase - Activity Score (Hepatotoxicity [4]),SGOT Increase - Index Value (Hepatotoxicity [4]),SGOT Increase - Number of Reports (Hepatotoxicity [4]),SGPT Increase - Activity Score (Hepatotoxicity [5]),SGPT Increase - Index Value (Hepatotoxicity [5]),SGPT Increase - Number of Reports (Hepatotoxicity [5]),GGT Increase - Activity Score (Hepatotoxicity [6]),GGT Increase - Index Value (Hepatotoxicity [6]),GGT Increase - Number of Reports (Hepatotoxicity [6])
CCCC1O[C@@H]2C[C@H]3[C@@H]4CCC5=CC(=O)C=C[C@]5(C)[C@H]4[C@@H](O)C[C@]3(C)[C@]2(C(=O)CO)O1 (stereo partly specified) [BUDESONIDE],0,0,Inactive,Inactive,0.2,< 4,Inactive,0,< 4,Inactive,0,< 4,Inactive,0,< 4,Inactive,0,< 4
CCCCNc1cc(C(=O)O)cc(S(N)(=O)=O)c1Oc1ccccc1 [BUMETANIDE],0,0,Inactive,Inactive,0,< 4,Inactive,0,< 4,Inactive,0,< 4,Inactive,0,< 4,Inactive,0,< 4
CO[C@]12CC[C@@]3(C[C@@H]1[C@](C)(O)C(C)(C)C)[C@H]1Cc4ccc(O)c5c4[C@@]3(CCN1CC1CC1)[C@H]2O5 [BUPRENORPHINE],0,0,Inactive,Inactive,0,< 4,Inactive,0,< 4,Inactive,0,< 4,Inactive,0,< 4,Inactive,0,< 4
CC(NC(C)(C)C)C(=O)c1cccc(Cl)c1 (stereo unspecified) [BUPROPION],0,0,Inactive,Inactive,0,< 4,Inactive,0,< 4,Inactive,0,< 4,Inactive,0,< 4,Inactive,0,< 4
O=C1CC2(CCCC2)CC(=O)N1CCCCN1CCN(c2ncccn2)CC1 [BUSPIRONE],0,1,Inactive,Inactive,0.9,>= 4,Inactive,0.4,< 4,Inactive,2.4,>= 4,Marginally Active,3.1,>= 4,Inactive,0.6,< 4
CN(Cc1ccc(C(C)(C)C)cc1)Cc1cccc2ccccc12 [BUTENAFINE],0,0,Inactive,Inactive,0,< 4,Inactive,0,< 4,Inactive,0,< 4,Inactive,0,< 4,Inactive,0,< 4
Clc1ccc(CCC(Cn2ccnc2)Sc2c(Cl)cccc2Cl)cc1 (stereo unspecified) [BUTOCONAZOLE],0,0,Inactive,Inactive,0.2,< 4,Inactive,0,< 4,Inactive,0,< 4,Inactive,0.2,< 4,Inactive,0,< 4
Oc1ccc2c(c1)[C@@]13CCCC[C@@]1(O)[C@@H](C2)N(CC1CCC1)CC3 [BUTORPHANOL],0,0,Inactive,Inactive,0,< 4,Inactive,0,< 4,Inactive,0,< 4,Inactive,0,< 4,Inactive,0,< 4
C=CCN1C[C@H](C(=O)N(CCCN(C)C)C(=O)NCC)C[C@@H]2c3cccc4[nH]cc(c34)C[C@H]21 [CABERGOLINE],0,0,Inactive,Inactive,0,< 4,Inactive,0,< 4,Inactive,0,< 4,Inactive,0,< 4,Inactive,0,< 4
C=C1/C(=C\C=C2/CCC[C@]3(C)[C@@H]([C@H](C)/C=C/[C@@H](O)C4CC4)CC[C@@H]23)C[C@@H](O)C[C@@H]1O [CALCIPOTRIENE],0,0,Inactive,Inactive,0,< 4,Inactive,0,< 4,Inactive,0.3,< 4,Inactive,0,< 4,Inactive,0,< 4
C=C1/C(=C\C=C2/CCC[C@]3(C)[C@@H]([C@H](C)CCCC(C)(C)O)CC[C@@H]23)C[C@@H](O)C[C@@H]1O [CALCITRIOL],0,0,Inactive,Inactive,0,< 4,Inactive,0,< 4,Inactive,0,< 4,Inactive,0,< 4,Inactive,0,< 4
C[C@H](CS)C(=O)N1CCC[C@H]1C(=O)O [CAPTOPRIL],0,0,Inactive,Inactive,1.1,>= 4,Inactive,0.4,< 4,Inactive,1.5,>= 4,Inactive,0.7,>= 4,Inactive,0,< 4
